In patent US4071411A, “Antitumor antibiotics aclacinomycins A and B [RD-9187A]” (priority 1974, dated 1978):
Converted amounts (≈) assume the structure as drawn. Like-named read-outs stand apart in the source and are kept apart here.

Columns and labels:
L1210 leukemia cells = experiment: survival of mice with L1210 leukemia, treatment days 1, 5 and 9; format: in vivo; details: for 30 day survivors / Mean survival time: days 1, 5 and 9; for 30 day survivors: control 0/10; for Mean survival time: control 10.4
Description: Mice are inoculated intraperitoneally with a suspension of L1210 leukemia cells and treated with solutions of different concentrations of aclacinomycin A and 1, 5 and 9 days following the tumor implantation.

[1] = test system: Mycobact. smegmatis ATCC 607; experiment: antimicrobial spectrum, broth dilution method; format: cell-based; details: read-out: Minimum Inhibitory Concentration
Procedure: (§1) 1. The antimicrobial spectrum of aclacinomycins A and B was determined by the broth dilution method as follows: […]

E. coli K12 = experiment: antimicrobial spectrum, broth dilution method; format: cell-based; details: Escherichia coli
Procedure: as §1

Sar. lutea ATCC 9341 = experiment: antimicrobial spectrum, broth dilution method; format: cell-based; details: Micrococcus luteus
Procedure: as §1

[2] = test system: Kl. pneumoniae ATCC 10031; experiment: antimicrobial spectrum, broth dilution method; format: cell-based; details: Klebsiella pneumoniae
Procedure: as §1

Can tropicalis IAM 4924 = experiment: antimicrobial spectrum, broth dilution method; format: cell-based; details: read-out: Minimum Inhibitory Concentration
Procedure: as §1

Sarcoma 180 = experiment: growth of Sarcoma 180 in mice; format: in vivo
hepatomas = hepatomas in rats (summary in words); format: in vivo
[3] = in vivo
Ehrlich carcinoma = experiment: growth of Ehrlich carcinoma in mice; format: in vivo; details: ascites and solid forms
[4] = test system: lymphoma 6C3HED/OG, ascitic type; experiment: ascitic lymphoma 6C3HED/OG in CH3/He mice; format: in vivo; details: for T/C (Survival ratio: Tested/control) / 62 day survivors / MST (Mean survival time): 10 days; for 62 day survivors: control 0/3; for MST (Mean survival time): control 20.5
ascitic hepatoma AH44 = experiment: survival of Donryu rats grafted with ascitic hepatoma AH44; format: in vivo; details: 2 mg./kg./day i.p., 10 consecutive days; control average survival 14.5 days
[5] = test system: lymphoma 6C3HED/OG, solid type; experiment: growth of solid lymphoma 6C3HED/OG in CH3/He mice; format: in vivo; details: for Inhibition / 21 day survivors / Tumor weight/Body weight / Tumor weight: 10 days; for 21 day survivors: control 7/9; for Tumor weight/Body weight: control 29.6; for Tumor weight: control 7045
[6] = cardiotoxicity (general statement); details: in vivo

For `CCC1(O)CC(OC2CC(N(C)C)C(OC3CC(O)C(OC4CCC(=O)C(C)O4)C(C)O3)C(C)O2)c2c(cc3c(c2O)C(=O)c2c(O)cccc2C3=O)C1C(=O)OC` (stereo not shown) [Aclacinomycin A], the 30 day survivors (L1210 leukemia cells; 1.5 mg/kg/day) was 0/5, the “Mean survival time” value (L1210 leukemia cells; 1.5 mg/kg/day) was 12.6 days and the 30 day survivors (L1210 leukemia cells; 3 mg/kg/day) was 2/5. For the same compound, the “Mean survival time” value (L1210 leukemia cells; 3 mg/kg/day) was 23.3 days, the 30 day survivors (L1210 leukemia cells; 6 mg/kg/day) was 2/5 and the “Mean survival time” value (L1210 leukemia cells; 6 mg/kg/day) was 21.7 days. For the same compound, the 30 day survivors (L1210 leukemia cells; 12 mg/kg/day) was 0/5, the “Mean survival time” value (L1210 leukemia cells; 12 mg/kg/day) was 16.1 days and the “mean survival time of the treated mice (in words)” value (L1210 leukemia cells; 6 and 3 mg./kg./day) was “increased considerably”. For the same compound, the MIC ([1]; broth dilution) was 2.5 µg/mL (≈ 3.08 µM), the MIC (E. coli K12; K12, broth dilution, read-out: Minimum Inhibitory Concentration) was > 100 µg/mL and the MIC (Sar. lutea ATCC 9341; ATCC9341, broth dilution, read-out: Minimum Inhibitory Concentration) was < 0.2 µg/mL. The MIC ([2]; ATCC10031, broth dilution, read-out: Minimum Inhibitory Concentration) was > 100 µg/mL, the MIC (Can tropicalis IAM 4924; broth dilution) was 20 µg/mL (≈ 24.6 µM) and the “inhibition of growth of Sarcoma 180” value (Sarcoma 180) was “effective in inhibiting the growth”. The “inhibition of growth of hepatomas” value (hepatomas) was “effective in inhibiting the growth”, the cardiotoxicity [3] was “low cardiotoxicity” and the “inhibition of growth of Ehrlich carcinoma” value (Ehrlich carcinoma) was “effective in inhibiting the growth”. The “T/C (Survival ratio: Tested/control)” value ([4]; 0.5 mg./kg./day i.p.) was 73%, the 62 day survivors ([4]; 0.5 mg./kg./day i.p.) was 0/3 and the “MST (Mean survival time)” value ([4]; 0.5 mg./kg./day i.p.) was 15.0 days. The “T/C (Survival ratio: Tested/control)” value ([4]; 1 mg./kg./day i.p.) was 183%, the 62 day survivors ([4]; 1 mg./kg./day i.p.) was 1/3 and the “MST (Mean survival time)” value ([4]; 1 mg./kg./day i.p.) was 37.5 days. For the same compound, the “T/C (Survival ratio: Tested/control)” value ([4]; 2 mg./kg./day i.p.) was 155%, the 62 day survivors ([4]; 2 mg./kg./day i.p.) was 0/3 and the “MST (Mean survival time)” value ([4]; 2 mg./kg./day i.p.) was 31.8 days. For the same compound, the “T/C (Survival ratio: Tested/control)” value ([4]; 4 mg./kg./day i.p.) was 98%, the 62 day survivors ([4]; 4 mg./kg./day i.p.) was 0/3 and the “MST (Mean survival time)” value ([4]; 4 mg./kg./day i.p.) was 20.1 days. For the same compound, the “inhibition of growth of ascitic 6C3HED/OG tumor (in words)” value ([4]; i.p. daily for 10 days) was “marked inhibition of the growth”, the “survival 30 days after the experiment” value (ascitic hepatoma AH44) was “all the treated rats were alive 30 days after the experiment” and the Inhibition ([5]; 0.5 mg./kg./day i.p.) was 47.6%. The 21 day survivors ([5]; 0.5 mg./kg./day i.p.) was 3/3, the “Tumor weight/Body weight” value ([5]; 0.5 mg./kg./day i.p.) was 12.4% and the Tumor weight ([5]; 0.5 mg./kg./day i.p.) was 3695 mg. For the same compound, the Inhibition ([5]; 1 mg./kg./day i.p.) was 64.5%, the 21 day survivors ([5]; 1 mg./kg./day i.p.) was 3/3 and the “Tumor weight/Body weight” value ([5]; 1 mg./kg./day i.p.) was 9.5%. For the same compound, the Tumor weight ([5]; 1 mg./kg./day i.p.) was 2501 mg, the Inhibition ([5]; 2 mg./kg./day i.p.) was 34.2% and the 21 day survivors ([5]; 2 mg./kg./day i.p.) was 3/3. For the same compound, the “Tumor weight/Body weight” value ([5]; 2 mg./kg./day i.p.) was 15.1%, the Tumor weight ([5]; 2 mg./kg./day i.p.) was 4633 mg and the Inhibition ([5]; 4 mg./kg./day i.p.) was 28.7%. The 21 day survivors ([5]; 4 mg./kg./day i.p.) was 0/3, the “Tumor weight/Body weight” value ([5]; 4 mg./kg./day i.p.) was 19.5% and the Tumor weight ([5]; 4 mg./kg./day i.p.) was 5023 mg. For the same compound, the “inhibition of growth of solid 6C3HED/OG tumor (in words)” value ([5]; i.p. daily for 10 days) was “marked inhibition of the growth”.
With `CCC1(O)CC(OC2CC(N(C)C)C(OC3CC4OC5CC(=O)C(C)OC5OC4C(C)O3)C(C)O2)c2c(cc3c(c2O)C(=O)c2c(O)cccc2C3=O)C1C(=O)OC` (stereo not shown) [Aclacinomycin B] the cardiotoxicity [6] was “low cardiotoxicity”, the MIC [1] was 5 µg/mL (≈ 6.17 µM) and the MIC (E. coli K12; K12, read-out: Minimum Inhibitory Concentration) was > 100 µg/mL. For the same compound, the MIC (Sar. lutea ATCC 9341; ATCC9341, read-out: Minimum Inhibitory Concentration) was < 0.2 µg/mL, the MIC ([2]; ATCC10031, read-out: Minimum Inhibitory Concentration) was > 100 µg/mL and the MIC (Can tropicalis IAM 4924) was 20 µg/mL (≈ 24.7 µM).
